Read-outs that look alike come from different tables or passages of the source.
Tested on: NL-RLuc virus
Test: Inhibition of HIV replication (NL-RLuc virus, luciferase readout in MT-2 cells)
Type: cell-based
Details: Human immunodeficiency virus 1, MT2, 120 h
Text: Inhibition of HIV Replication:
A recombinant NL-RLuc proviral clone was constructed in which a section of the nef gene from NL4-3 was replaced with the Renilla Luciferase gene. This virus is fully infectious and can undergo multiple cycles of replication in cell culture. In addition, the luciferous reporter provides a simple and easy method for quantitating the extent of virus growth and consequently, the antiviral activity of test compounds. The plasmid pNLRLuc contains the proviral NL-Rluc DNA cloned into pUC18 at the PvuII site. The NL-RLuc virus was prepared by transfection of 293T cells with the plasmid pNLRLuc. Transfections were performed using the LipofectAMINE PLUS kit from Invitrogen (Carlsbad, Calif.) according to the manufacturer and the virus generated was titered in MT-2 cells. For susceptibility analyses, the titrated virus was used to infect MT-2 cells in the presence of compound, and after 5 days of incubation, cells were processed and quantitated for virus growth by the amount of expressed luciferase. Assay media was RPMI 1640 supplemented with 10% heat inactivated fetal bovine serum (FBS), 100 units/ml penicillin G/100 units/ml streptomycin, 10 mM HEPES buffer pH 7.55 and 2 mM L-glutamine. The results from at least 2 experiments were used to calculate the EC50 values. Luciferase was quantitated using the Dual Luciferase kit from Promega (Madison, Wis.). Susceptibility of viruses to compounds was determined by incubation in the presence of serial dilutions of the compound. The 50% effective concentration (EC50) was calculated by using the exponential form of the median effect equation where (Fa)=1/[1+(ED50/drug conc.)^m] (Johnson V A, Byington R T. Infectivity Assay. In Techniques in HIV Research. ed. Aldovini A, Walker BD. 71-76. New York: Stockton Press. 1990). Activity equal to A refers to a compound having an EC50<100 nM, while B and C denote compounds having an EC50 between 100 nM and 1 uM (B) or >1 uM (C).

Row | SMILES | EC50 (read-out: Activity) | EC50 (read-out: EC50 μM)
1 | Cc1ccc(CN2CCc3cc(-c4c(C)nc(C)c([C@H](OC(C)(C)C)C(=O)O)c4-c4ccc5c(c4)CCCO5)ccc3C2)c(C)c1 [Example 28, (S)-2-(tert-Butoxy)-2-(4-(chroman-6-yl)-5-(2-(2,4-dimethylbenzyl)-1,2,3,4-tetrahydroisoquinolin-6-yl)-2,6-dimethylpyridin-3-yl)acetic Acid] | < 0.1 µM | –
2 | Cc1cc(F)ccc1CN1CCc2cc(-c3c(C)nc(C)c([C@H](OC(C)(C)C)C(=O)O)c3-c3cc(F)c4c(c3)CCCO4)ccc2C1 [Example 50, (S)-2-(tert-Butoxy)-2-(5-(2-(4-fluoro-2-methylbenzyl)-1,2,3,4-tetrahydroisoquinolin-6-yl)-4-(8-fluorochroman-6-yl)-2,6-dimethylpyridin-3-yl)acetic Acid] | < 0.1 µM | –
3 | Cc1cc(N2CCc3cc(-c4c(CN(C)CC5CCOCC5)nc(C)c([C@H](OC(C)(C)C)C(=O)O)c4-c4ccc5c(c4)CCCO5)ccc3C2)ncn1 [Example 33, (S)-2-(tert-Butoxy)-2-(4-(chroman-6-yl)-2-methyl-6-((methyl((tetrahydro-2H-pyran-4-yl)methyl)amino)methyl)-5-(2-(6-methylpyrimidin-4-yl)-1,2,3,4-tetrahydroisoquinolin-6-yl)pyridin-3-yl)acetic Acid] | 0.1 to 1 µM | 0.282 µM
4 | Cc1nc(C)c([C@H](OC(C)(C)C)C(=O)O)c(-c2cc(F)c3c(c2)CCCO3)c1-c1ccc(OCCc2ccc(F)cc2)cc1 [Example 48, (S)-2-(tert-Butoxy)-2-(4-(8-fluorochroman-6-yl)-5-(4-(4-fluorophenethoxy)phenyl)-2,6-dimethylpyridin-3-yl)acetic Acid] | < 0.1 µM | –
5 | Cc1nc(C)c([C@H](OC(C)(C)C)C(=O)O)c(-c2ccc3c(c2)CCCO3)c1-c1ccc(OCCc2ccc(F)cc2)cc1 [Example 9, (S)-2-(tert-Butoxy)-2-(4-(chroman-6-yl)-5-(4-(4-fluorophenethoxy)phenyl)-2,6-dimethylpyridin-3-yl)acetic Acid] | < 0.1 µM | –
6 | Cc1nc(C)c([C@H](OC(C)(C)C)C(=O)O)c(-c2ccc3c(c2)C(F)(F)CCO3)c1-c1ccc(OCCc2ccc(F)cc2)cc1 [Example 36, (S)-2-(tert-Butoxy)-2-(4-(4,4-difluorochroman-6-yl)-5-(4-(4-fluorophenethoxy)phenyl)-2,6-dimethylpyridin-3-yl)acetic Acid] | < 0.1 µM | –
7 | Cc1cc(N2CCc3cc(-c4c(N)nc(C)c([C@H](OC(C)(C)C)C(=O)O)c4-c4ccc5c(c4)CCCO5)ccc3C2)nc(C)n1 [Example 65, (S)-2-(6-Amino-4-(chroman-6-yl)-5-(2-(2,6-dimethylpyrimidin-4-yl)-1,2,3,4-tetrahydroisoquinolin-6-yl)-2-methylpyridin-3-yl)-2-(tert-butoxy)acetic Acid] | < 0.1 µM | –
8 | Cc1nc(COC2CCOCC2)c(-c2ccc(OCCc3ccc(F)cc3)cc2)c(-c2ccc3c(c2)CCCO3)c1[C@H](OC(C)(C)C)C(=O)O [Example 15, (S)-2-(tert-Butoxy)-2-(4-(chroman-6-yl)-5-(4-(4-fluorophenethoxy)phenyl)-2-methyl-6-(((tetrahydro-2H-pyran-4-yl)oxy)methyl)pyridin-3-yl)acetic Acid] | < 0.1 µM | –
9 | Cc1nc(C)c([C@H](OC(C)(C)C)C(=O)O)c(-c2ccc3c(c2)CCCO3)c1-c1ccc2c(c1)CCN(Cc1ccccc1F)C2 [Example 23, (S)-2-(tert-Butoxy)-2-(4-(chroman-6-yl)-5-(2-(2-fluorobenzyl)-1,2,3,4-tetrahydroisoquinolin-6-yl)-2,6-dimethylpyridin-3-yl)acetic Acid] | < 0.1 µM | –
10 | COc1ccc(COc2ccc(-c3c(C)nc(C)c([C@H](OC(C)(C)C)C(=O)O)c3-c3ccc(OCc4ccc(OC)cc4)cc3)cc2)cc1 [Example 4, (S)-2-(4,5-Bis(4-((4-methoxybenzyl)oxy)phenyl)-2,6-dimethylpyridin-3-yl)-2-(tert-butoxy)acetic Acid] | 0.1 to 1 µM | –
11 | Cc1nc(CNCC2CCOCC2)c(-c2ccc(OCCc3ccc(F)cc3)cc2)c(-c2ccc3c(c2)CCCO3)c1[C@H](OC(C)(C)C)C(=O)O [Example 11, (S)-2-(tert-Butoxy)-2-(4-(chroman-6-yl)-5-(4-(4-fluorophenethoxy)phenyl)-2-methyl-6-((((tetrahydro-2H-pyran-4-yl)methyl)amino)methyl)pyridin-3-yl)acetic Acid] | < 0.1 µM | –
12 | Cc1ccccc1CN1CCc2cc(-c3c(C)nc(C)c([C@H](OC(C)(C)C)C(=O)O)c3-c3cc(F)c4c(c3C)CCCO4)ccc2C1 [Example 40, (2S)-2-(tert-Butoxy)-2-(4-(8-fluoro-5-methylchroman-6-yl)-2,6-dimethyl-5-(2-(2-methylbenzyl)-1,2,3,4-tetrahydroisoquinolin-6-yl)pyridin-3-yl)acetic Acid] | < 0.1 µM | –
13 | Cc1nc(CCCC2CCOCC2)c(-c2ccc(OCCc3ccc(F)cc3)cc2)c(-c2ccc3c(c2)CCCO3)c1[C@H](OC(C)(C)C)C(=O)O [Example 66, (S)-2-(tert-Butoxy)-2-(4-(chroman-6-yl)-5-(4-(4-fluorophenethoxy)phenyl)-2-methyl-6-(3-(tetrahydro-2H-pyran-4-yl)propyl)pyridin-3-yl)acetic Acid] | < 0.1 µM | 0.006 µM
14 | Cc1cccc(F)c1CN1CCc2cc(-c3c(N)nc(C)c([C@H](OC(C)(C)C)C(=O)O)c3-c3ccc4c(c3)CCCO4)ccc2C1 [Example 62, (S)-2-(6-Amino-4-(chroman-6-yl)-5-(2-(2-fluoro-6-methylbenzyl)-1,2,3,4-tetrahydroisoquinolin-6-yl)-2-methylpyridin-3-yl)-2-(tert-butoxy)acetic Acid] | < 0.1 µM | –
15 | Cc1nc(C)c([C@H](OC(C)(C)C)C(=O)O)c(-c2ccc3c(c2)CCCO3)c1-c1ccc2c(c1)CCNC2 [Example 21, (S)-2-(tert-Butoxy)-2-(4-(chroman-6-yl)-2,6-dimethyl-5-(1,2,3,4-tetrahydroisoquinolin-6-yl)pyridin-3-yl)acetic acid] | > 1 µM | 7.77 µM
16 | Cc1cc(N2CCc3cc(-c4c(C)nc(C)c([C@H](OC(C)(C)C)C(=O)O)c4-c4ccc5c(c4)CCCO5)ccc3C2)nc(C)n1 [Example 58, (S)-2-(tert-Butoxy)-2-(4-(chroman-6-yl)-5-(2-(2,6-dimethylpyrimidin-4-yl)-1,2,3,4-tetrahydroisoquinolin-6-yl)-2,6-dimethylpyridin-3-yl)acetic Acid] | < 0.1 µM | –
17 | Cc1nc(C)c([C@H](OC(C)(C)C)C(=O)O)c(-c2ccc3c(c2)CCCO3)c1-c1ccc2c(c1)CCN(C)C2 [Example 22, (S)-2-(tert-Butoxy)-2-(4-(chroman-6-yl)-2,6-dimethyl-5-(2-methyl-1,2,3,4-tetrahydroisoquinolin-6-yl)pyridin-3-yl)acetic acid] | 0.1 to 1 µM | 0.628 µM
18 | Cc1cc(N2CCc3cc(-c4c(C)nc(C)c([C@H](OC(C)(C)C)C(=O)O)c4-c4ccc5c(c4)CCCO5)ccc3C2)ncn1 [Example 55, (S)-2-(tert-Butoxy)-2-(4-(chroman-6-yl)-2,6-dimethyl-5-(2-(6-methylpyrimidin-4-yl)-1,2,3,4-tetrahydroisoquinolin-6-yl)pyridin-3-yl)acetic Acid] | < 0.1 µM | –
19 | Cc1nc(C)c([C@H](OC(C)(C)C)C(=O)O)c(-c2ccc3c(c2)CCCO3)c1-c1ccc2c(c1)CCN(C(=O)OCc1ccccc1)C2 [Example 19, (S)-2-(5-(2-((Benzyloxy)carbonyl)-1,2,3,4-tetrahydroisoquinolin-6-yl)-4-(chroman-6-yl)-2,6-dimethylpyridin-3-yl)-2-(tert-butoxy)acetic Acid] | < 0.1 µM | 0.069 µM
20 | Cc1nc(C)c([C@H](OC(C)(C)C)C(=O)O)c(-c2cc(F)c3c(c2)C=CCO3)c1-c1ccc(OCCc2ccc(F)cc2)cc1 [Example 47, (S)-2-(tert-Butoxy)-2-(4-(8-fluoro-2H-chromen-6-yl)-5-(4-(4-fluorophenethoxy)phenyl)-2,6-dimethylpyridin-3-yl)acetic Acid] | < 0.1 µM | –
21 | Cc1nc(C)c([C@H](OC(C)(C)C)C(=O)O)c(-c2ccc3c4c(ccnc24)CCO3)c1-c1ccc(OCCc2ccc(F)cc2)cc1 [Example 43, (2S)-2-(tert-Butoxy)-2-(4-(2,3-dihydropyrano[4,3,2-de]quinolin-7-yl)-5-(4-(4-fluorophenethoxy)phenyl)-2,6-dimethylpyridin-3-yl)acetic Acid] | 0.1 to 1 µM | –
22 | Cc1cccc(F)c1CN1CCc2cc(-c3c(C)nc(C)c([C@H](OC(C)(C)C)C(=O)O)c3-c3cc(F)c4c(c3C)CCCO4)ccc2C1 [Example 39, (2S)-2-(tert-Butoxy)-2-(4-(8-fluoro-5-methylchroman-6-yl)-5-(2-(2-fluoro-6-methylbenzyl)-1,2,3,4-tetrahydroisoquinolin-6-yl)-2,6-dimethylpyridin-3-yl)acetic Acid] | < 0.1 µM | 0.024 µM
23 | Cc1nc(CO)c(-c2ccc(OCCc3ccc(F)cc3)cc2)c(-c2ccc3c(c2)CCCO3)c1[C@H](OC(C)(C)C)C(=O)O [Example 14, (S)-2-(tert-Butoxy)-2-(4-(chroman-6-yl)-5-(4-(4-fluorophenethoxy)phenyl)-6-(hydroxymethyl)-2-methylpyridin-3-yl)acetic Acid] | < 0.1 µM | –
